Test results: patent US12448376B2, “Phenothiazine ferroptosis inhibitor, preparation method therefor and application thereof” (CHENGDU HENGHAO INNOVATIVE SCIENCE AND TECHNOLOGY CO., LTD., priority 2019, dated 2025)

What was measured:
fibrosarcoma cell line = assay: Ferroptosis screening model, MTT cell viability assay with Erastin induction; assay type: cell-based
Protocol: In this example, in order to study the inhibitor of ferroptosis, a screening model for ferroptosis was constructed in house, and the details are as follows:
The screening model for ferroptosis mainly used the MTT cell viability assay. First, the fibrosarcoma cell line was cultured in a dish, and the cells in the logarithmic growth phase were seeded in a 96-well plate in specific numbers (3000-10000 cells/well), 100 μL per well, and then cultured in an incubator at 37° C. and 5% CO2 to allow the cells to adhere. After 24 h, 100 μL of compounds at certain concentrations prepared in the indicated medium and the ferroptosis inducer Erastin (final concentration of 10 μM) were added, and wells in triplicate were set up for each compound to ensure the accuracy of the results. A negative control group, positive control group (5 μM of ferrostain-1), blank control group and solvent control group were also set. After dosing, cells were placed in the incubator and cultured for 72 h. On the day of the MTT test, MTT test solution (5 mg/mL MTT solution dissolved in physiological saline, stored at 4° C. in the dark) was pre-prepared, and 20 μL was added to each well. Cells were placed in the incubator and cultured for another 2-4 h. Then, 50 μL of 20% SDS solution (dissolved in MiliiQ water, added with 1% concentrated hydrochloric acid) was added to each well, and cells were placed in the incubator overnight. The next day, the absorbance value at 570 nm was detected with a microplate reader to calculate the inhibition rate of the drug on ferroptosis. Generally, the absorbance value of the control group should be between 0.8-1.2 as a normal value.
The curve of inhibition rate change was fitted using Graph Pad Prism 5 software to obtain EC50.

human hERG ion channel = target: T1, human hERG ion channel (Homo sapiens, UniProt Q12809); assay: hERG whole-cell patch clamp in HEK293 cells; assay type: cell-based; details: for IC50: hERG tail current, HEK293 cells, 0.3-30 μM, room temperature
T1 construct: expressed in transfected cells; host or cells: HEK293 cells stably expressing hERG
T1 sequence (Q12809 whole entry): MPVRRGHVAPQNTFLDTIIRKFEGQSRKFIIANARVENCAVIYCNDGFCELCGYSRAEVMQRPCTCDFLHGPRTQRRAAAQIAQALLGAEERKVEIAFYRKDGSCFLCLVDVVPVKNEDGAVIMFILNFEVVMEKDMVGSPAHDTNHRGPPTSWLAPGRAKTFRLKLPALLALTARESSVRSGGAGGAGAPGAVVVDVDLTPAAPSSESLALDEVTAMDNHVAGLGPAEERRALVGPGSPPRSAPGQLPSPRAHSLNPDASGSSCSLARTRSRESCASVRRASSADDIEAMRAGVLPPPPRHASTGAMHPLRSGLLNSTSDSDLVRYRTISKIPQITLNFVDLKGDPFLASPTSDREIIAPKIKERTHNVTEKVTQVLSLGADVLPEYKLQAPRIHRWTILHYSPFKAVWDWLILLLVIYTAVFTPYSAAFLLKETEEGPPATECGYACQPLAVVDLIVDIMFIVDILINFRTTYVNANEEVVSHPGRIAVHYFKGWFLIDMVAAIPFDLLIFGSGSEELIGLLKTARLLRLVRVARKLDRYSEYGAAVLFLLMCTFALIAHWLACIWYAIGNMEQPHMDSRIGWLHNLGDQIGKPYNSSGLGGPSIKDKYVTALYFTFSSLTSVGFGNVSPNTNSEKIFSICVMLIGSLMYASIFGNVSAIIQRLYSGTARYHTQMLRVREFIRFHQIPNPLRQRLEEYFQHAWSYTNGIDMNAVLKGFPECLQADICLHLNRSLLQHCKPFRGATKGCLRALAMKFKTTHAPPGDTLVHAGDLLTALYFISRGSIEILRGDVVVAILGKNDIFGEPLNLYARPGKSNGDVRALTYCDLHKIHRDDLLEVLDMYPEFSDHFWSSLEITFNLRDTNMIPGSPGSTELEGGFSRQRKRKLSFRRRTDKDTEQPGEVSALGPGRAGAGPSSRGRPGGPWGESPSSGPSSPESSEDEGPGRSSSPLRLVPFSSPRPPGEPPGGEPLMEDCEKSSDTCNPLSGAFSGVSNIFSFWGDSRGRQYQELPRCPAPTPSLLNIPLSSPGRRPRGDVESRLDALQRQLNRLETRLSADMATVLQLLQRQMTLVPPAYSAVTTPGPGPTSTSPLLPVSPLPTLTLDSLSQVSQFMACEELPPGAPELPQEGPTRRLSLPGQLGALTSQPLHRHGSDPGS
Protocol: Effect of Compounds of the Present Disclosure on Human hERG Ion Channel Expressed in HEK293 Cells at Steady State Determined by Patch Clamp
The hERG ion channel steady-state expressing HEK293 cells were transferred to a perfusion tank and perfused with extracellular fluid at room temperature. Each cell was used as a control. All test compounds were dissolved by shaking with dimethyl sulfoxide and prepared as serial concentrations of 0.3 μM, 1 μM, 3 μM, 10 μM and 30 μM. The test compounds were perfused using a perfusion system utilizing their own gravity. At least two cells were tested for each concentration. After the current was stable (or 5 min), the current magnitude changes before and after the compound was used were compared to calculate the blocking effect of the compound. Test electrodes were pulled with PC-10. Whole-cell patch clamp was used to record, with noise filtered at one-fifth of the sampling frequency. […] This procedure was repeated every 15 seconds. hERG tail currents were pure hERG currents. After the current was stabilized, the administration was performed by continuous extracellular perfusion from low concentration to high concentration. Starting from a low concentration, perfusion was continued until the drug effect was stable, and then perfusion of the next concentration was performed.
Stimulus delivery and signal acquisition were performed by the Patch Master software. The signal was amplified with a patch clamp amplifier with a filtering of 10 KHz. Fit Master, EXCEL, Graph Pad Prism and SPSS 21.0 were used for further data analysis and curve fitting. In data processing, when judging the blocking effect on hERG the peak value of the tail current and its baseline were corrected. The effect of each compound at different concentrations was expressed by the inhibition rate of the tail current. Inhibition rate %=100×(peak value of tail current before administration-peak value of tail current after administration)/peak value of tail current before administration
IC50 values were fitted by the Hill equation: […]

[1] = test system: middle cerebral artery occlusion (MCAO) cerebral stroke model in rat; assay: Rat MCAO cerebral stroke model, single administration, TTC staining; assay type: in vivo, SD rats; details: for Infarct area weight: tail vein injection within 10 min of reperfusion; for Infarct area weight / Infarct size: 24 h after reperfusion; for Inhibition rate of cerebral infarction / Infarct size: tail vein injection; for Inhibition rate of cerebral infarction: calculated from infarct size against model control; for Infarct size: infarct tissue weight as percentage of whole brain
Protocol: Through the middle cerebral artery occlusion (MCAO) cerebral stroke model (also known as cerebral ischemia model) in rat, the therapeutic effects of the compounds of the present disclosure at different doses and single administration on ischemic cerebral stroke in SD rats were studied. […] The ischemic rats were placed at room temperature to keep their body temperature at 37° C. After 90 min, the suture was pulled out for reperfusion. […] After 24 h of reperfusion, the animals were scored by NSS to evaluate neurological function, and then the animals were dissected to remove the brain for TTC staining. By determining the size of cerebral infarction and calculating the inhibition rate, the therapeutic effects of the test compounds on ischemic cerebral stroke in rats were evaluated comprehensively. […] The percentage of infarct tissue weight in the whole brain was used as the infarct size (%), and the inhibition rate (%) of each drug treatment group was calculated based on the infarct size. The inhibition rate was calculated with the following formula: [formula] 2.

[2] = Hemolysis reaction (statement only, no method)
[3] = 72 h, inhibition of ferroptosis induced by Erastin 10 μM, MTT; average of three tests
[4] = summary of Table 1, compared with positive drug ferrostain-1
[5] = inhibition of ferroptosis induced by Erastin 10 μM, 72 h, MTT; average of three tests

Row | Compound | EC50 (fibrosarcoma cell line; [3]) | further results
1 | C=C(c1ccc2c(c1)Nc1ccccc1S2)c1cn2cc(C(=O)NC3CCOCC3)nc2cn1 [Compound 23] | 0.067 µM | 
2 | C=C(c1ccc2c(c1)Nc1ccccc1S2)c1cn2cc(C(=O)N[C@H](C)c3ccccc3)nc2cn1 [Compound 26] | 0.076 µM | 
3 | C=C(c1ccc(S(=O)(=O)NC2CCN(C)CC2)cc1)c1ccc2c(c1)Nc1ccccc1S2 [Comparative Compound 2, reference compound] |  | IC50 (human hERG ion channel): 0.71 µM
4 | C=C(c1ccc2c(c1)Nc1ccccc1S2)c1ccc2c(C=O)c[nH]c2c1 [Compound 10] | 0.015 µM | 
5 | C=C(c1ccc2c(c1)Nc1ccccc1S2)c1cnc2sccc2c1 [Compound 35] | 0.074 µM | 
6 | C=C(c1cnc2c(c1)CCN2)c1ccc2c(c1)Nc1ccccc1S2 [Compound 17] | 0.089 µM | 
7 | C=C(c1ccc2c(c1)Nc1ccccc1S2)c1ccc2c(C(=O)NCCN3CCOCC3)c[nH]c2c1 [Compound 6] | 0.015 µM | 
8 | C=C(c1ccc2c(c1)Nc1ccccc1S2)c1ccc2c(c1)SCC(=O)N2 [Compound 11] | 0.033 µM | 
9 | C=C(c1ccc2c(c1)Nc1ccccc1S2)c1cn2ccnc2c(N2CCOCC2)n1 [Compound 7] | 0.024 µM | 
10 | C=C(c1ccc2c(c1)Nc1ccccc1S2)c1cnc2c(cnn2C2CCN(C(=O)OC(C)(C)C)CC2)c1 [Compound 29] | 0.029 µM | 
11 | C=C(c1ccc2c(c1)Nc1ccccc1S2)c1cnc2c(cnn2C2CCN(C)CC2)c1 [Compound 20] | 0.0002 µM | inhibitory effects on ferroptosis (in words) (fibrosarcoma cell line; [4]): excellent inhibitory effects on ferroptosis, significantly better than the positive drug ferrostain-1
12 | C=C(c1ccc2c(c1)Nc1ccccc1S2)c1cnc2c(cnn2C2CN(C(=O)OC(C)(C)C)C2)c1 [Compound 30] | 0.092 µM | 
13 | C=C(c1ccc2c(c1)Nc1ccccc1S2)c1cn2cc(C(=O)NCC3CCOCC3)nc2cn1 [Compound 24] | 0.056 µM | 
14 | C=C(c1ccc2c(c1)Nc1ccccc1S2)c1cnc2c(cnn2C2CCOC2)c1 (stereo not drawn) [Compound 32] |  | EC50 (fibrosarcoma cell line; [5]): 0.05 µM
15 | C=C(c1ccc2c(c1)Nc1ccccc1S2)c1cnc2[nH]ncc2c1 [Compound 31] | 0.011 µM | 
16 | C=C(c1ccc2c(c1)CCN2C(C)=O)c1ccc2c(c1)Nc1ccccc1S2 [Compound 16] | 0.01 µM | 
17 | C=C(c1ccc2c(c1)Nc1ccccc1S2)c1cnc2c(cnn2C2CCNCC2)c1 [Compound 36] | 0.016 µM | 

Row | Compound | EC50 (fibrosarcoma cell line; [3]) | further results
18 | C=C(c1ccc2c(c1)Nc1ccccc1S2)c1cnc2c(cnn2C2CN(C(=O)OC(C)(C)C)C2)c1 [Compound 8] |  | EC50 (fibrosarcoma cell line; [5]): 0.055 µM
19 | C=C(c1ccc2c(c1)Nc1ccccc1S2)c1cnc2c(cnn2C2CCOC2)c1 (stereo not drawn) [Compound 19] |  | EC50 (fibrosarcoma cell line; [5]): 0.013 µM
20 | C=C(c1ccc2c(c1)Nc1ccccc1S2)c1cn2cc(C(=O)N[C@H](C)c3cccc4ccccc34)nc2cn1 [Compound 25] | 0.055 µM | 
21 | C=C(c1ccc2c(c1)Nc1ccccc1S2)c1cnc2c(cnn2CC2CCOCC2)c1 [Compound 2] | 0.038 µM | 
22 | CCOC(=O)c1ccc(NC2CCCCC2)c(N)c1 [Ferrostain-1, Ferrostatin-1, reference compound] |  | EC50 (fibrosarcoma cell line; 72 h): 0.06 µM
23 | C=C(c1ccc2c(c1)Nc1ccccc1S2)c1cnc2c(cnn2CCOC)c1 [Compound 27] | 0.073 µM | 
24 | C=C(c1ccc2c(c1)Nc1ccccc1S2)c1cnc2c(cnn2CC2CCN(C(=O)OC(C)(C)C)CC2)c1 [Compound 4] | 0.076 µM | 
25 | C=C(c1ccc2c(c1)Nc1ccccc1S2)c1ccc2cc(C(=O)NCCN3CCOCC3)[nH]c2c1 [Compound 9] | 0.012 µM | 
26 | C=C(c1ccc2c(c1)Nc1ccccc1S2)c1ccc2ncccc2c1 [Compound 14] | 0.006 µM | effect on the human hERG ion channel (in words) (human hERG ion channel; HEK293 cells in a steady state): no significant effect; IC50 (human hERG ion channel): > 30 µM; improvement of cardiac safety compared with compound 59 of CN111574474A (human hERG ion channel; ratio of hERG IC50 values): about 50 times; Infarct area weight ([1]; 2.5 mg/kg): 0.15 ± 0.07 g; Inhibition rate of cerebral infarction ([1]; 2.5 mg/kg): 14.0%; Infarct size ([1]; 2.5 mg/kg): 12.11 ± 5.69%; Infarct area weight ([1]; 5 mg/kg): 0.12 ± 0.05 g; Inhibition rate of cerebral infarction ([1]; 5 mg/kg): 29.3%; Infarct size ([1]; 5 mg/kg): 9.95 ± 4.69%; range of necrosis of brain tissue lesions (in words) ([1]; high and low dose administration groups): reduce the range of necrosis of brain tissue lesions; hemolysis reaction (in words) [2]: no hemolysis reaction; inhibitory effects on ferroptosis (in words) (fibrosarcoma cell line; [4]): excellent inhibitory effects on ferroptosis, significantly better than the positive drug ferrostain-1
27 | CCCCC1OC(=O)c2ccccc21 (stereo not drawn) [Positive drug, butylphthalide, reference compound] |  | Infarct area weight ([1]; 5 mg/kg): 0.18 ± 0.09 g; Inhibition rate of cerebral infarction ([1]; 5 mg/kg): 1.1%; Infarct size ([1]; 5 mg/kg): 13.93 ± 6.97%
28 | CC(c1ccc(N2CCN(C)CC2)cc1)c1ccc2c(c1)Nc1ccccc1S2 (stereo not drawn) [Comparative Compound 1, reference compound] |  | Infarct area weight ([1]; 2.5 mg/kg): 0.14 ± 0.07 g; Inhibition rate of cerebral infarction ([1]; 2.5 mg/kg): 19.0%; Infarct area weight ([1]; 5 mg/kg): 0.11 ± 0.05 g; Inhibition rate of cerebral infarction ([1]; 5 mg/kg): 33.6%
29 | C=C(c1ccc2c(c1)Nc1ccccc1S2)c1cnc2c(ccn2C)c1 [Compound 34] | 0.042 µM | 
30 | C=C(c1ccc2c(c1)Nc1ccccc1S2)c1cnc2c(cnn2CC)c1 [Compound 33] | 0.067 µM | 
31 | C=C(c1ccc2c(c1)Nc1ccccc1S2)c1cnc2nc(C(=O)NCCN(C)C)cn2c1 [Compound 22] | 0.014 µM | 
32 | C=C(c1ccc2c(c1)Nc1ccccc1S2)c1ccc2c(c1)OCCO2 [Compound 13] | 0.037 µM | 
33 | C=C(c1ccc2c(c1)Nc1ccccc1S2)c1ccc2c(c1)OC(F)(F)O2 [Compound 15] | 0.01 µM | 
